The values below come from patent publication US20100234395A1, “UREIDE DERIVATIVE AND PHARMACEUTICAL APPLICATION THEREOF” (TORAY INDUSTRIES, INC., priority 2006, published 2010).

Test [1] concerns ddY mice. Put plainly: Acetic acid writhing test in mice (analgesic effects). In kind it is in vivo. Conditions: for ED50: Mus musculus; for activity ratio (analgesic effects): subcutaneous administration. How it is done:
ddY mice were grown for at least 16 hours under fasting conditions while free water intake was allowed, and a solution of the test compound or a solvent was orally administered thereto (0.1 ml/10 g). As a solvent for a solution of the test compound, dimethyl sulfoxide (DMSO):Tween 80:27% hydroxypropyl-P-cyclodextrin (hereafter abbreviated to “HP-β-CD”) (1:1:8) or 27% HP-β-CD was used. A solution of 0.6% acetic acid (0.1 ml/10 g) was administered intraperitoneally 45 minutes after administration to induce a writhing reaction (i.e., a movement of stretching or arching the body). The number of the writhing reactions that had occurred for the period from 10 minutes after administration of the acetic acid solution to 10 minutes thereafter was counted, and the number of times was designated as an indicator of pain. The number of times of reactions in the group to which a solvent had been administered was designated as 100%, and the concentration of the test compound that had inhibited 50% of such reaction was designated as the ED50 value.
The compound of Reference Example 78 is disclosed in the claims of JP Patent Publication (kohyo) No. 2006-517535 A, the compounds of Reference Examples 93 and 199 are disclosed in the claims of JP Patent No. 3003148, and the compound of Reference Example 103 is disclosed in the claims of JP Patent Publication (kohyo) No. 2006-514095 A. Thus, these compounds were compared with the compounds of the present invention having similar structures in terms of analgesic effects with oral administration (Table 4) or subcutaneous administration (Table 5). Dimethyl sulfoxide (DMSO):Tween 80:27% HP-β-CD (1:1:8) or 27% HP-β-CD was used as a solvent for the test compound.
For orientation: An intraperitoneal irritant provokes the stretching counted in writhing tests.

For a further test, the target named is T1, COX-1 (Homo sapiens, UniProt P23219).
T1 construct: Human blood that had been sampled with the use of heparin (19 units/ml) was used; from tissue; host or cells: human whole blood (heparinised)
T1 sequence (P23219 24-599): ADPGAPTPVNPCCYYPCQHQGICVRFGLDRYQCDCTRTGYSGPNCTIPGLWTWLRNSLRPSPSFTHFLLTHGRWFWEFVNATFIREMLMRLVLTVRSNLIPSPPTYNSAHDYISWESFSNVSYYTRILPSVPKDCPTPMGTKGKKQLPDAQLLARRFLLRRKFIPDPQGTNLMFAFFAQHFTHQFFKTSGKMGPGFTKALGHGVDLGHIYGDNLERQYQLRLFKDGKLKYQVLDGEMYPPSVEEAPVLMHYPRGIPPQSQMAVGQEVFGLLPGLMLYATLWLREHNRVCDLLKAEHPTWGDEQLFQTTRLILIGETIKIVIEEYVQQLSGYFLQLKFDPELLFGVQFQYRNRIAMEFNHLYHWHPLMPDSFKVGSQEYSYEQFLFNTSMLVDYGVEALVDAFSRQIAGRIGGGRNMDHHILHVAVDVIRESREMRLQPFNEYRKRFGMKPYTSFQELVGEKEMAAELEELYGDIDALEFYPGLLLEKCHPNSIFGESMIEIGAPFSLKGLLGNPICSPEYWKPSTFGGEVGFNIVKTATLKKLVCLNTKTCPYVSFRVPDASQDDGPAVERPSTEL
Put plainly: Activity of inhibiting COX-1 in human blood (thromboxane B2 after ionomycin). In kind it is cell-based. To be noted: thromboxane B2 production. How it is done:
Human blood that had been sampled with the use of heparin (19 units/ml) was used. Blood was fractionated to reaction tubes in amounts of 500 μl, the test compound or solvent was added thereto, and the resultants were incubated at 37° C. for 60 minutes. Dimethyl sulfoxide (DMSO) was used as a solvent for the test compound. Thereafter, ionomycin (30 nM) was added, and the reaction was allowed to proceed for 30 minutes. After the completion of the reaction, the supernatant (blood plasma) was recovered via centrifugation at 4° C., and the amount of thromboxane B2 in the plasma was quantified using a kit (519031, Cayman Chemical). The amount of thromboxane B2 produced via the addition of ionomycin was designated as 100%, and the concentration of the test compound that inhibits 50% of such reaction was represented by the IC50 value.

Test [2] deals with ddY mice. Put plainly: Formalin test in mice. Type of test: in vivo. To be noted: oral 10 mg/kg, FIG. 2; for indicator of pain (licking time), phase II: 10 to 30 minutes after formalin; for indicator of pain (licking time), phase I: within 10 minutes after formalin. How it is done:
ddY mice were grown for at least 16 hours under fasting conditions while free water intake was allowed, and a solution of the test compound or a solvent was orally administered thereto (0.1 ml/10 g). As a solvent for a solution of the test compound, 27% HP-β-CD was used. Thirty minutes after administration, 20 μl of a 2.5% formalin solution was subcutaneously administered to the ichnograms of right posterior legs of mice to induce a movement of licking. A movement of mice to lick the treated legs was designated as an indicator of pain, and the licking time was measured at 5-minute intervals for 30 minutes. The reaction that had occurred within 10 minutes immediately after administration of the formalin solution was designated as the phase I reaction, and the reaction that had occurred 10 to 30 minutes after administration was designated as the phase II reaction.

A further test deals with T2, COX-2 (Homo sapiens, UniProt P35354).
T2 construct: Human blood that had been sampled with the use of heparin (19 units/ml) was used; from tissue; host or cells: human whole blood (heparinised), aspirin-pretreated, stimulated with lipopolysaccharide
T2 sequence (P35354 18-604): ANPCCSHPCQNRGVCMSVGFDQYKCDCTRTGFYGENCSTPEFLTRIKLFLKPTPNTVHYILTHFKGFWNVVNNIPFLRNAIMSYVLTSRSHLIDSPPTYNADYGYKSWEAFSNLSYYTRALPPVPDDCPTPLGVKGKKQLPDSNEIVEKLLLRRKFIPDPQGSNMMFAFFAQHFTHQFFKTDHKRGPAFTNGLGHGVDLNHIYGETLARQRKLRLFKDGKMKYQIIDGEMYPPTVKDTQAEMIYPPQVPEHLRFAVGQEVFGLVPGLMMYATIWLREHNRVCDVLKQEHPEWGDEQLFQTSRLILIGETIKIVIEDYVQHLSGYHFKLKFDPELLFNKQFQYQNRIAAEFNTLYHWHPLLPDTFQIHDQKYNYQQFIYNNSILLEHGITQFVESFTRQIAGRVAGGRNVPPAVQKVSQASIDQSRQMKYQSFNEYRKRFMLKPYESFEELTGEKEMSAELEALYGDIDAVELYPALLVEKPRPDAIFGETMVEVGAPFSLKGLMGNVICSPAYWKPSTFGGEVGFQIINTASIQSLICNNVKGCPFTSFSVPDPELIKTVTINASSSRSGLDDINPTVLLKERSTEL
Put plainly: Activity of inhibiting COX-2 in human blood (prostaglandin E2 after lipopolysaccharide). Type of test: cell-based. To be noted: prostaglandin E2 production. How it is done: Human blood that had been sampled with the use of heparin (19 units/ml) was used. Blood was fractionated to reaction tubes in amounts of 500 μl, aspirin (12 μg/ml) was added thereto, and the resultants were incubated at 37° C. for 6 hours. Thereafter, the test compound or solvent, and lipopolysaccharide (10 μg/ml) were added, and the reaction was allowed to proceed for 18 hours. After the completion of the reaction, the supernatant (blood plasma) was recovered via centrifugation at 4° C., and the amount of prostaglandin E2 in the plasma was quantified using a kit (514010, Cayman Chemical). Dimethyl sulfoxide (DMSO) was used as a solvent for the test compound. The amount of prostaglandin E2 produced via the addition of lipopolysaccharide was designated as 100%, and the concentration of the test compound that inhibits 50% of such reaction was represented by the IC50 value.

The subject of a further test is ICR mice. Put plainly: Partial sciatic nerve ligation model in mice (Seltzer model), von Frey test. To be noted: oral administration of 3 and 10 mg/kg of Example 27 and Example 40, respectively; 7 days after ligation; FIG. 1. Type of test: in vivo. How it is done:
Analgesic effects of the compound of the present invention were evaluated using the partial sciatic nerve ligation model (Seltzer models) in mice, with which neuropathic pain can be evaluated.
Models of neuropathic pain were prepared in accordance with the method of Seltzer et al. ICR mice (5-week-old, male) were put under anesthesia with sodium pentobarbital (70 mg/kg, i.p.) to expose the sciatic nerve of the femoral region of the right posterior limb, and half of the sciatic nerve was strongly and triply ligated using 8-0 silk yarn (Natsume Seisakusho, Co., Ltd.) under a microscope (this group is designated as the “ligation group”). The group that had been subjected to exposure of the sciatic nerve without ligation was designated as a sciatic nerve control group (i.e., the “sham group”). […] The von Frey tests were performed 1 hour, 2 hours, and 3 hours after the oral administration for determining the pre-values prior to the administration of the test substances, which took place 7 days after the ligation surgery of sciatic nerve, and such values were designated as the indicators of analgesic effects. Gabapentin (30 mg/kg, po) was used as a positive control. As a solvent for the test compound, 27% HP—P—CD was used.
The obtained data were processed by performing a paired t-test amongst several groups and correcting the data via Dunnett's method.
The compound of Reference Example 78 is disclosed in the claims of JP Patent Publication (kohyo) No. 2006-517535 A, the compounds of Reference Example 93 and Reference Example 199 are disclosed in the claims of JP Patent No. 3003148, and the compound of Reference Example 103 is disclosed in the claims of JP Patent Publication (kohyo) No. 2006-514095 A. Accordingly, sulfate of Reference Example 78, toluenesulfonate of Reference Example 93, the free compound of Reference Example 199, and sulfate of Reference Example 103 were used as test compounds and evaluated using mouse models of partial sciatic nerve ligation, which were similar to those used in Example 79. 27% HP-β-CD was used as a solvent for the test compounds.

[3] abbreviates: sc, Table 5, subcutaneous administration, read-out: ED50 (mg/kg) [90% confidence limit].
[4] abbreviates: oral administration 45 minutes before 0.6% acetic acid i.p., 50% inhibition of writhing reactions, read-out: ED50 (mg/kg)[90% confidence limit].

Like-named read-outs stand apart in the source and are kept apart here. Some results are limits rather than exact numbers.

As to `COc1ccc(-c2nc(C3CCN(C(=O)N(C)O)CC3)sc2-c2ccc(OC)cc2)cc1` [Example 27, 4-(4,5-Bis(4-methoxyphenyl)thiazol-2-yl)-1-(N-hydroxy-N-methylcarbamoyl)piperidine], the ED50 in the test with ddY mice [1] (setting [3]) came to 1.82 mg/kg; with ddY mice [1] (setting [4]), 2.46 mg/kg. Moreover, the “activity ratio (analgesic effects)” value with ddY mice [1] (compared with Reference Example 93 (toluenesulfonate)) is “at least 54 times”; in the test with ddY mice [1] (compared with Reference Example 199) it was “about 19 times”. Besides, the values for the IC50 on COX-1 and on COX-2 were less than 0.1 µM and greater than 10 µM, respectively. In the test with ddY mice [2], the “indicator of pain (licking time), phase II” value is recorded as “significantly improved”. In the test on ddY mice [2], the “indicator of pain (licking time), phase I” value is given as “significantly improved”. For the same molecule, the “results of the von Frey test” value in the test with ICR mice is recorded as “significantly improved”.
For the molecule `COc1ccc(-c2cc(C3CCN(C(=O)N(C)O)CC3)nn2-c2ccc(OC)cc2)cc1` [Example 40, 4-(1,5-Bis(4-methoxyphenyl)-1H-pyrazol-3-yl)-1-(N-hydroxy-N-methylcarbamoyl)piperidine], the ED50 with ddY mice [1] (setting [3]) is 2.47 mg/kg; in the test on ddY mice [1] (setting [4]), 1.64 mg/kg. For the same molecule, the “activity ratio (analgesic effects)” value with ddY mice [1] (compared with Reference Example 103 (sulfate)) is “at least 40 times”. The IC50 (commonly the concentration needed to halve the response being measured) was less than 0.1 µM at COX-1 and greater than 10 µM at COX-2. The “indicator of pain (licking time), phase II” value in the test on ddY mice [2] is “significantly improved”. In addition, in the test with ddY mice [2], the “indicator of pain (licking time), phase I” value is recorded as “significantly improved”. In addition, in the test on ICR mice, the “results of the von Frey test” value is “significantly improved”.
